The results in this text go back to PMC7503981, “Plant Nitrilase Homologues in Fungi: Phylogenetic and Functional Analysis with Focus on Nitrilases in Trametes versicolor and Agaricus bisporus” (Molecules, 2020).

The target of test [1] is T1, NitTv1 (Trametes versicolor, UniProt P9WEU6).
T1 construct: gene nit; catalytic tetrad E46, K133, E140, C178
Briefly: spectrophotometric ammonia assay; […] substrate. The class given is biochemical. To be noted: read-out: Substrate β-CA / Vmax [U mg^-1 rotein)] KM (mM) / NLase Activity ^2; NLase (Asp + ammonia forming) activity; no asparaginase added for NLase activity; 50 mM Tris/HCl, 150 mM NaCl, pH 8.0, 30 °C.

The subject of test [2] is T2, NitAb.
T2 construct: catalytic tetrad E45, K157, E164, C195
Description: spectrophotometric ammonia assay; […] substrate. It is filed as biochemical, Agaricus bisporus. As to conditions: NLase (Asp + ammonia forming) activity; no asparaginase added for NLase activity; 50 mM Tris/HCl, 150 mM NaCl, pH 8.0, 30 °C; read-out: Substrate β-CA / Vmax [U mg^-1 rotein)] KM (mM) / NLase Activity ^2.

T1 sequence (P9WEU6 whole entry): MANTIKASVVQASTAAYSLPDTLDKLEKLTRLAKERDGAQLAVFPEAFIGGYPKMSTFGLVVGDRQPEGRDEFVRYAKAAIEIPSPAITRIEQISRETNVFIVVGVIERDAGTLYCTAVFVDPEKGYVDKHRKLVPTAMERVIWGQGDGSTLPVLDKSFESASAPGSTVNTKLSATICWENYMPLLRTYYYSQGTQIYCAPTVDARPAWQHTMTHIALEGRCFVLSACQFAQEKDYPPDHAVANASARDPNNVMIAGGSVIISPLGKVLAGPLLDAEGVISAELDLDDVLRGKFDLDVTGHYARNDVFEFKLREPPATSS

`N#CC[C@H](N)C(=O)O` [β-CA, β-cyano-L-alanine]: the Km turned out to be 7.72 ± 1.82 mM in test [1] and 7.38 ± 1.4 mM in test [2].
